Laboratory results taken from patent publication US12404239B2, “Modulators of BCL6 as ligand directed degraders” (Celgene Corporation, priority 2022, dated 2025).

target: T1, BCL6 (Homo sapiens, UniProt P41182); test: BCL6_HiBiT degradation assay (2 h); type: cell-based; conditions: DHL-4_BCL6_HiBiT cells
T1 construct: HiBiT-tag knocked into endogenous BCL6 locus using CRISPR; endogenous in cells; host or cells: DHL-4_BCL6_HiBiT cells (CRISPR knock-in)
In short: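 DHL-4 cells carrying CRISPR HiBiT knock-in at endogenous BCL6, treated 2 h at 37 °C with 10-point 3-fold dilutions from 1-10 μM. BCL6 level read by Nano-Glo HiBiT lytic luminescence normalized to DMSO; four-parameter fit gives degradation EC50 and Yconstant (% remaining at maximal effect).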

Row | YCon (% remaining maximal effect) | Structure (SMILES)
1 | (>60%) | CN1C(=O)Cc2cc(Nc3nc(N4CCC(Nc5ccc6c(C7CCC(=O)NC7=O)nn(C)c6c5)CC4)ncc3Cl)ccc21 (single isomer, unassigned) [Example 54]

same assay, conditions: DHL-4_BCL6_HiBiT cells, read-out: YCon (% remaining maximal effect)

Row | Percent BCL6 remaining at maximal degradation (Ycon) [%] | Structure (SMILES)
2 | > 60 | C[C@H]1C(=O)N(c2ccc3c(C4CCC(=O)NC4=O)nn(C)c3c2)CC[C@@H]1N(C)c1ncc(Cl)c(Nc2ccc3c(c2)CC(=O)N3C)n1 (single isomer, unassigned) [Example 130]
3 | > 60 | C[C@H]1C[C@H](N(C)c2ccc3c(C4CCC(=O)NC4=O)nn(C)c3c2)CCN1c1ncc(Cl)c(Nc2ccc3c(c2)CC(=O)N3C)n1 (stereo partly drawn) [Example 84, 3-(6-(((2S,4R)-1-(5-chloro-4-((1-methyl-2-oxoindolin-5-yl)amino)pyrimidin-2-yl)-2-methylpiperidin-4-yl)(methyl)amino)-1-methyl-1H-indazol-3-yl)piperidine-2,6-dione]
4 | 20 to 60 | CN1C(=O)Cc2cc(Nc3nc(N(C)[C@H]4CCN(c5ccc6c(C7CCC(=O)NC7=O)nn(C)c6c5)C(=O)C4)ncc3Cl)ccc21 (single isomer, unassigned) [Example 128]
5 | > 60 | CC1CCN(c2ncc(Cl)c(Nc3ccc4c(c3)CC(=O)N4C)n2)CCC1Nc1ccc2c(C3CCC(=O)NC3=O)nn(C)c2c1 (single isomer, unassigned) [Example 48, 3-(6-((1-(5-chloro-4-((1-methyl-2-oxoindolin-5-yl)amino)pyrimidin-2-yl)-5-methylazepan-4-yl)amino)-1-methyl-1H-indazol-3-yl)piperidine-2,6-dione]

The next lines start with the molecule.

Row | Structure (SMILES) | Percent BCL6 remaining at maximal degradation (Ycon) [%]
6 | Cn1nc(N2CCC(=O)NC2=O)c2ccc(NC3CCN(c4ncc(Cl)c(Nc5ccc6c(c5)CC(=O)N6CC(F)(F)F)n4)CC3)cc21 [Example 136, 1-(6-((1-(5-chloro-4-((2-oxo-1-(2,2,2-trifluoroethyl)indolin-5-yl)amino)pyrimidin-2-yl)piperidin-4-yl)amino)-1-methyl-1H-indazol-3-yl)dihydropyrimidine-2,4(1H,3H)-dione] | > 60
7 | CN1C(=O)Cc2cc(Nc3nc(N(C)C4CCN(c5cnc6c(C7CCC(=O)NC7=O)nn(C)c6c5)CC4)ncc3Cl)ccc21 (centres unmarked) [Example 59, 3-(6-(4-((5-chloro-4-((1-methyl-2-oxoindolin-5-yl)amino)pyrimidin-2-yl)(methyl)amino)piperidin-1-yl)-1-methyl-1H-pyrazolo[4,3-b]pyridin-3-yl)piperidine-2,6-dione] | > 60
8 | CN1C(=O)Cc2cc(Nc3nc(N4CCC(Nc5ccc6c(C7CCC(=O)NC7=O)nn(C)c6c5)C(F)(F)C4)ncc3Cl)ccc21 (centres unmarked) [Example 64, 3-(6-((1-(5-Chloro-4-((1-methyl-2-oxoindolin-5-yl)amino)pyrimidin-2-yl)-3,3-difluoropiperidin-4-yl)amino)-1-methyl-1H-indazol-3-yl)piperidine-2,6-dione] | > 60
9 | CNCCN1C(=O)Cc2cc(Nc3nc(N4CC[C@@H](Nc5ccc6c(C7CCC(=O)NC7=O)nn(C)c6c5)[C@H](C)C4)ncc3Cl)ccc21 (stereo partly drawn) [Example 104, 3-(6-(((3R,4R)-1-(5-chloro-4-((1-(2-(methylamino)ethyl)-2-oxoindolin-5-yl)amino)pyrimidin-2-yl)-3-methylpiperidin-4-yl)amino)-1-methyl-1H-indazol-3-yl)piperidine-2,6-dione] | < 20
10 | COCCN1C(=O)Cc2cc(Nc3nc(N4CC[C@@H](Nc5ccc6c([C@@H]7CCC(=O)NC7=O)nn(C)c6c5)[C@H](C)C4)ncc3Cl)ccc21 (single isomer, unassigned) [Example 77] | < 20
11 | CN1C(=O)Cc2cc(Nc3nc(N4CC[C@@H](Nc5ccc6c(C7CCC(=O)NC7=O)nn(C)c6c5)[C@@H](CO)C4)ncc3Cl)ccc21 (stereo partly drawn) [Example 57, 3-[6-[[(3S,4R)-1-[5-Chloro-4-[(1-methyl-2-oxo-indolin-5-yl)amino]pyrimidin-2-yl]-3-(hydroxymethyl)-4-piperidyl]amino]-1-methyl-indazol-3-yl]piperidine-2,6-dione] | > 60
